Results from patent US10519114B2, “Peptidomimetics and methods of using the same” (The Regents of the University of Michigan, priority 2016, dated 2019).

Tests used:
[1] = target: T1, human κ (CHO-KOR) opioid receptor (Homo sapiens, UniProt P41145); assay: Radioligand binding assay, [3H]diprenorphine displacement, KOR; conditions: displacement of 0.2 nM [3H]diprenorphine, CHO-KOR membranes; mean ± standard error
T1 construct: expressed in transfected cells
Experimental: (§1) In Vitro Pharmacology-Cell Lines and Membrane Preparations. All tissue culture reagents were purchased from Gibco Life Sciences (Grand Island, N.Y., U.S.). C6-rat glioma cells stably transfected with a rat μ (C6-MOR) or rat δ (C6-DOR) opioid receptor20 and Chinese hamster ovary (CHO) cells stably expressing a human K (CHO-KOR) opioid receptor21 were used for all in vitro assays. Cells were grown to confluence at 37° C. in 5% CO2 in Dulbecco's modified Eagle medium containing 10% fetal bovine serum and 5% penicillin/streptomycin. Membranes were prepared by washing confluent cells three times with ice cold phosphate buffered saline (0.9% NaCl, 0.61 mM Na2HPO4, 0.38 mM KH2PO4, pH 7.4). Cells were detached from the plates by incubation in warm harvesting buffer (20 mM HEPES, 150 mM NaCl, 0.68 mM EDTA, pH 7.4) and pelleted by centrifugation at 200 g for 3 min. The cell pellet was suspended in ice-cold 50 mM Tris-HCl buffer, pH 7.4, and homogenized with a Tissue Tearor (Biospec Products, Inc., Bartlesville, Okla., U.S.) for 20 s at setting 4. The homogenate was centrifuged at 20 000 g for 20 min at 4° C., and the pellet was rehomogenized in 50 mM Tris-HCl with a Tissue Tearor for 10 s at setting 2, followed by recentrifugation. The final pellet was resuspended in 50 mM Tris-HCl and frozen in aliquots at […]. Protein concentration was determined via Bradford assay using bovine serum albumin as the standard.
(§2) Radioligand Binding Assays. Radioactive compounds were purchased from Perkin-Elmer (Waltham, Mass., U.S.). Opioid ligand binding assays were performed using competitive displacement of 0.2 nM [3H]diprenorphine (250 μCi, 1.85 TBq/mmol) by the test compound from membrane preparations containing opioid receptors. The assay mixture, containing membrane suspension (20 μg protein/tube) in 50 mM Tris-HCl buffer (pH 7.4), [3H]diprenorphine, and various concentrations of test peptide, was incubated at room temperature for 1 h to allow binding to reach equilibrium. The samples were rapidly filtered through Whatman GF/C filters using a Brandel harvester (Brandel, Gaithersburg, Md., U.S.) and washed three times with 50 mM Tris-HCl buffer. The radioactivity retained on dried filters was determined by liquid scintillation counting after saturation with EcoLume liquid scintillation cocktail in a Wallac 1450 MicroBeta (Perkin-Elmer, Waltham, Mass., U.S.). Nonspecific binding was determined using 10 μM naloxone. Inhibitory constant (Ki) values were calculated using nonlinear regression analysis to fit a logistic equation to the competition data using GraphPad Prism, version 5.01, for Windows (GraphPad Software Inc., La Jolla, Calif.). The results presented are the mean±standard error from at least three separate assays performed in duplicate.

[2] = target: T2, rat δ (C6-DOR) opioid receptor (Rattus norvegicus, UniProt P33533); assay: Stimulation of [35S]GTPγS binding, DOR; format: biochemical; conditions: for EC50 / EC50 (nm) DOR: [35S]GTPγS binding, C6-DOR membranes, mean ± standard error; for Emax / % stimulation DOR: [35S]GTPγS maximal stimulation compared with 10 μM standard DPDPE
T2 construct: expressed in transfected cells
T2 sequence (P33533 whole entry): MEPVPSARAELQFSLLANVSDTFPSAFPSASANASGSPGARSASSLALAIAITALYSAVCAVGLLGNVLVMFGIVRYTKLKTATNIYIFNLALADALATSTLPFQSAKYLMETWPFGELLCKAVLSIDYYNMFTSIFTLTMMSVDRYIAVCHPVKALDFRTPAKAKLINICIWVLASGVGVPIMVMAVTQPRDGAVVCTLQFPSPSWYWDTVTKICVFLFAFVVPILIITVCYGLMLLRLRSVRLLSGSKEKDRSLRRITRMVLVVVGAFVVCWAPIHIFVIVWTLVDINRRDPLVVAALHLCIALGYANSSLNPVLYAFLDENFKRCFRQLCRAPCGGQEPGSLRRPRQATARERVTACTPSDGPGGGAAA
Experimental: as §1
(§3) Stimulation of [^35S]GTPyS Binding. Agonist stimulation of [35S]guanosine 5′-O-[γ-thio]triphosphate ([^35S]GTPγS, 1250 Ci, 46.2 TBq/mmol) binding was measured as described previously Briefly, membranes (10-20 μg of protein/tube) were incubated 1 h at room temperature in GTPyS buffer (50 mM Tris-HCl, 100 mM NaCl, 5 mM MgCl2, pH 7.4) containing 0.1 nM [^35S]GTPγS, 30 μM guanosine diphosphate (GDP), and varying concentrations of test peptides. Peptide stimulation of [^35S]GTPyS was compared with 10 μM standard compounds [D-Ala^2,N-MePhe^4,Gly-ol]encephalin (DAMGO) at MOR, D-Pen^2,5-enkephalin (DPDPE) at DOR, or […] at KOR. The reaction was terminated by rapidly filtering through GF/C filters and washing 10 times with GTPyS buffer, and retained radioactivity was measured as described above. The results presented are the mean±standard error from at least three separate assays performed in duplicate; maximal stimulation was determined using nonlinear regression analysis with GraphPad Prism (GraphPad Software Inc., La Jolla, Calif.).

[3] = target: T2, rat δ (C6-DOR) opioid receptor; assay: Radioligand binding assay, [3H]diprenorphine displacement, DOR; conditions: displacement of 0.2 nM [3H]diprenorphine, C6-DOR membranes; mean ± standard error
Experimental: as §1, §2

[4] = target: T3, rat μ (C6-MOR) opioid receptor (Rattus norvegicus, UniProt P33535); assay: Radioligand binding assay, [3H]diprenorphine displacement, MOR; conditions: displacement of 0.2 nM [3H]diprenorphine, C6-MOR membranes; mean ± standard error
T3 construct: expressed in transfected cells
T3 sequence (P33535 whole entry): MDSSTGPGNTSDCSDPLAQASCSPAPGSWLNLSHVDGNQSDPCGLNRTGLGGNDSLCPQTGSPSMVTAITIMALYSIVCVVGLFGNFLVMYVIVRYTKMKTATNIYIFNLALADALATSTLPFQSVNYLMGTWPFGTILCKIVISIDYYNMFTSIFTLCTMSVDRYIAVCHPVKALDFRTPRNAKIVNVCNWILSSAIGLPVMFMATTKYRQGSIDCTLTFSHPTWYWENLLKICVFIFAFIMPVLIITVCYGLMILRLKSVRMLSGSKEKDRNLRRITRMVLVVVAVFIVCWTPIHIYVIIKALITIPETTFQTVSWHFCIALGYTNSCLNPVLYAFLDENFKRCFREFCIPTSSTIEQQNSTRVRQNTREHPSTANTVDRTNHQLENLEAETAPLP
Experimental: as §1, §2

[5] = target: T3, rat μ (C6-MOR) opioid receptor; assay: Stimulation of [35S]GTPγS binding, MOR; format: biochemical; conditions: for EC50: [35S]GTPγS binding, C6-MOR membranes, mean ± standard error; for Emax: [35S]GTPγS maximal stimulation compared with 10 μM standard DAMGO
Experimental: as §1, §3

[6] = target: T1, human κ (CHO-KOR) opioid receptor; assay: Stimulation of [35S]GTPγS binding, KOR; format: biochemical; conditions: for Emax / % stimulation KOR: [35S]GTPγS maximal stimulation compared with 10 μM standard U-69,593; for EC50 / EC50 (nm) KOR: [35S]GTPγS binding, CHO-KOR membranes, mean ± standard error
Experimental: as §1, §3

T1 sequence (P41145 whole entry): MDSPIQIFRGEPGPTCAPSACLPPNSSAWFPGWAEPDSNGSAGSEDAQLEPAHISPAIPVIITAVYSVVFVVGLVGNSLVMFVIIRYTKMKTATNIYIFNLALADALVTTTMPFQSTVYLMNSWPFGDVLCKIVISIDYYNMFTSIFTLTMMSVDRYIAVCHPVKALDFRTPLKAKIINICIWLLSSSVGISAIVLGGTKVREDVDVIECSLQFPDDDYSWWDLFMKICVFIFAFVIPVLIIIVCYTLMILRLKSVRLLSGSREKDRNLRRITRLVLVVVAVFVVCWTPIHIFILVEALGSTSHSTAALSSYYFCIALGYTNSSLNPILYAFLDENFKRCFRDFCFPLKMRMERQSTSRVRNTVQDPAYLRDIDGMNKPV

Row | Compound | Ki [1] [nM] | EC50 [2] [nM] | Emax [2] [%] | Ki [3] [nM] | Ki [4] [nM] | EC50 [5] [nM] | Emax [5] [%] | Emax [6] [%] | EC50 [6] [nM] | EC50 (nm) DOR [2] | % stimulation DOR [2] | EC50 (nm) KOR [6] | % stimulation KOR [6]
1 | Cc1cc(O)cc(C)c1C[C@H](N)C(=O)N(C1CC1)[C@@H]1CCNc2ccc(Cc3ccccc3)cc21 [Compound 1015] | 58.9 ± 28.5 | 149 ± 42 | 19.5 ± 2.83 | 23.4 ± 10.9 | 25.6 ± 9.83 | 131 ± 21.2 | 15.8 ± 3.75 | -1.84 ± 1.83 | – | – | – | – | –
2 | CC(=O)N1CC[C@@H](NC(=O)[C@@H](N)Cc2c(C)cc(O)cc2C)c2cc(Oc3ccccc3)ccc21 [Compound 1019] | 32.98 ± 0.1 | 222 | 15.8 | 4.21 ± 1.26 | 0.1 ± 0.02 | 6.49 ± 3.21 | 76.6 ± 2.66 | 37.3 | 1080 | – | – | – | –
3 | Cc1cc(O)cc(C)c1C[C@H](N)C(=O)N[C@@H]1CCNc2ccc(Cc3ccc(F)cc3)cc21 [Compound 1009] | 6.6 | – | 16 | 4 | 0.07 | – | 69 | 9 | – | – | – | – | –
4 | Cc1cc(O)cc(C)c1C[C@H](N)C(=O)N[C@@H]1CCNc2c(-c3cc4ccccc4o3)cc(Cc3ccccc3)cc21 [Compound 1095] | 800 ± 115 | – | – | 71 ± 17 | 3.14 ± 1 | 15.6 ± 6.86 | 100 ± 2.48 | – | – | dns | dns | dns | dns
5 | Cc1cc(O)cc(C)c1C[C@H](N)C(=O)N[C@@H]1CCNc2c(CN3CCNCC3)cc(Cc3ccccc3)cc21 [Compound 1131] | 1.9 | 280 | 17 | 22 | 0.35 | 8 | 61 | 18 | 190 | – | – | – | –
6 | CC(=O)N1CC[C@@H](NC(=O)[C@@H](N)Cc2c(C)cc(O)cc2C)c2cc(Cc3ccccc3)cc(C)c21 [Compound 1055] | 80 ± 20 | 384 ± 296 | 30 ± 3 | 1.88 ± 0.53 | 0.18 ± 0.04 | 7.05 ± 2.32 | 86 ± 3 | 32 ± 2 | 930 ± 600 | – | – | – | –
7 | Cc1cc(O)cc(C)c1C[C@H](N)C(=O)N(C)[C@@H]1CCNc2ccc(Cc3ccccc3)cc21 [Compound 1001] | 116 ± 30 | 410 ± 138 | 12.6 ± 5.5 | 15.7 ± 3.7 | 0.9 ± 0.3 | 3 ± 0.31 | 80.6 ± 4.7 | 3.9 ± 0.9 | 488 ± 142 | – | – | – | –
8 | CCCN1CC[C@@H](NC(=O)[C@@H](N)Cc2c(C)cc(O)cc2C)c2cc(Cc3ccccc3)ccc21 [Compound 1006] | 71.7 ± 20 | 2330 ± 1030 | 39.3 ± 5.45 | 1.72 ± 0.61 | 0.34 ± 0.21 | 16.4 ± 8.18 | 83.1 ± 3.25 | 38.2 ± 3.42 | 5010 ± 1020 | – | – | – | –
9 | CC(=O)N1CC[C@@H](NC(=O)[C@@H](N)Cc2c(C)cc(O)cc2C)c2cc(CC3Cc4ccccc4C3C)ccc21 (stereo partly drawn) [Compound 1125] | 2.53 ± 1.52 | – | – | 0.67 ± 0.08 | 0.28 ± 0.12 | 3.03 ± 2.32 | 69.5 ± 10.4 | – | – | dns | dns | dns | dns
10 | Cc1cc(O)cc(C)c1C[C@H](N)C(=O)N[C@H]1CCNc2ccc(Cc3ccc(F)cc3)cc21 [Compound 1010] | 90 | – | 12 | 190 | 10 | – | 58 | 0 | – | – | – | – | –
11 | CCCCCCc1ccc2c(c1)[C@@H](NC(=O)[C@@H](N)Cc1c(C)cc(O)cc1C)CCN2 [Compound 1012] | 3900 | > 10000 | 22 | 1240 ± 438 | 297 ± 72 | > 1000 | 18 | 0 | – | – | – | – | –
12 | Cc1cc(O)cc(C)c1C[C@H](N)C(=O)N(C)[C@H]1CCNc2ccc(Cc3ccccc3)cc21 [Compound 1002] | 4.1 ± 0.4 | – | 2.2 ± 2.2 | 8.5 ± 0.2 | 0.8 ± 0.04 | 0.463 ± 0.1 | 65.6 ± 4.4 | 8.3 ± 2.4 | 7.2 ± 0.4 | – | – | – | –
13 | Cc1cc(C(N)=O)cc(C)c1C[C@H](N)C(=O)N[C@@H]1CCNc2ccc(Cc3ccccc3)cc21 [Compound 1048] | 170 ± 49.1 | 1590 ± 738 | 24.5 ± 3.25 | 32.3 ± 7.57 | 0.6 ± 0.12 | 9.2 ± 4.58 | 97.9 ± 4.71 | – | – | – | – | dns | dns
14 | Cc1cc(O)cc(C)c1C[C@H](N)C(=O)N[C@@H]1CCCc2ccc(-c3ccccc3)cc21 [Compound 1117] | 20.9 ± 4.12 | 181 ± 28.2 | 21.2 ± 10.7 | 3.99 ± 1.31 | 0.57 ± 0.32 | 9.51 ± 3.3 | 28.7 ± 2.39 | 45.6 ± 1.77 | 321 ± 176 | – | – | – | –
15 | CC(=O)N1CC[C@@H](NC(=O)[C@@H](N)Cc2c(C)cc(O)cc2C)c2cc(-c3ccccc3)ccc21 [Compound 1067] | 35.8 ± 16.8 | 1520 ± 889 | 37.4 ± 6.31 | 1.32 ± 0.37 | 0.88 ± 0.4 | 5.64 ± 0.35 | 51.3 ± 8.48 | 69.1 ± 5.04 | 291 ± 32.5 | – | – | – | –
16 | Cc1cc(O)cc(C)c1C[C@H](N)C(=O)N[C@@H]1CCNc2ccc(-c3ccccc3)cc21 [Compound 1068] | 165 ± 110 | – | – | 13.4 ± 4.32 | 1.11 ± 0.44 | 11.8 ± 5.77 | 23.7 ± 5.88 | 57.1 ± 2.63 | 933 ± 219 | dns | dns | – | –
17 | Cc1cc(O)cc(C)c1C[C@H](N)C(=O)N[C@@H]1CCNc2ccc(CN3CCc4cccc(C(F)(F)F)c4C3)cc21 [Compound 1061] | 48.5 ± 17.5 | – | – | 13.6 ± 1.27 | 0.17 ± 0.03 | 8.88 ± 2.71 | 37.8 ± 2.55 | – | – | dns | dns | dns | dns
18 | Cc1cc(O)cc(C)c1C[C@H](N)C(=O)N[C@@H]1CCNc2ccc(CN3CCC[C@H]4CCCC[C@@H]43)cc21 [Compound 1051] | 7.03 ± 1.36 | – | – | 9.5 ± 1.22 | 0.18 ± 0.03 | 1.22 ± 0.07 | 36.2 ± 8.14 | – | – | dns | dns | dns | dns
19 | Cc1cc(O)cc(C)c1C[C@H](N)C(=O)N[C@@H]1CCOc2ccc(Cc3ccccc3)cc21 [Compound 1111] | 58.3 ± 14.1 | 118 ± 2.45 | 8.97 ± 4.78 | 8.65 ± 1.61 | 0.046 ± 0.028 | 4.85 ± 2.14 | 69.7 ± 5.97 | 28.3 ± 6.71 | 662 ± 152 | – | – | – | –
